# Source: ChEMBL document CHEMBL1201862, “PubChem BioAssay data set” (2004)
# The source made the active and inactive calls.
# Assays:
# [1] = biological target: Voltage-dependent T-type calcium channel subunit alpha-1H (Homo sapiens, UniProt O95180); assay type: functional;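 further: channel activity triggered by adding a high calcium stimulation buffer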
# [2] = A Cell Based Secondary Assay To Explore Cytotoxicity of Compounds that Sensitize Mycobacterium Tuberculosis to Beta-Lactam Antibiotics.; assay type: functional
# Prothrombin = Prothrombin (Homo sapiens, UniProt P00734); test: Thrombin 1536 HTS Dose Response Confirmation. [Related pubchem assays: 1046 (Thrombin 1536 HTS; hits were confirmed in this assay)]; assay type: functional
# Protein RecA = biological target: T1, Protein RecA (Mycobacterium tuberculosis, UniProt P9WHJ3); test: Fluorescence Cell-Free Homogeneous Dose Retest to Identify Inhibitors of RecA-Intein Splicing Activity. [Related pubchem assays (depositor defined):AID2097, AID2223, AID489010, AID492950]; assay type: functional
# T1 sequence (P9WHJ3 whole entry): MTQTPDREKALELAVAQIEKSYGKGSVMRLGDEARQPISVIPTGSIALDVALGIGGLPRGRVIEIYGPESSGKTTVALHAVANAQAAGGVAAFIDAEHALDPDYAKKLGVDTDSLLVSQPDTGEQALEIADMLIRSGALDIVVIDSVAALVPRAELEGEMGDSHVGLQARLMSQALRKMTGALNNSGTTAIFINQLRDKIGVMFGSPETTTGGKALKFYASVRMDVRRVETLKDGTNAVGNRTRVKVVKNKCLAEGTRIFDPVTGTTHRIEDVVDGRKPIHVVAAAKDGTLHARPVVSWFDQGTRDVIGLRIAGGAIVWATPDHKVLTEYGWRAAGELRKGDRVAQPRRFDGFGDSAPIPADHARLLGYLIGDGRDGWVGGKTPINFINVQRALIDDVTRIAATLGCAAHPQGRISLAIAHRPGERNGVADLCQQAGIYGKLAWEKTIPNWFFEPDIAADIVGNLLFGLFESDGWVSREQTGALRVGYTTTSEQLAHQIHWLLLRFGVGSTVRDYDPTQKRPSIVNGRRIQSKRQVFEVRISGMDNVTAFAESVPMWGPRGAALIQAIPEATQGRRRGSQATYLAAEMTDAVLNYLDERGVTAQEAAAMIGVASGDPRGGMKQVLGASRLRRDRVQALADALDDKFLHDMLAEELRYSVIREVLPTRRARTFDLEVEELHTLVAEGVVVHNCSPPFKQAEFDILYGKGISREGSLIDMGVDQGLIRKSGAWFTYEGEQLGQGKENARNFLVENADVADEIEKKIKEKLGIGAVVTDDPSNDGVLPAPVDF
# [3] = biological target: T2, Replicative DNA helicase DnaB (Mycobacterium tuberculosis, UniProt P9WMR3); test: DnaB intein splicing inhibitors, dose response, biochemical, cell-free fluorescence (AID 449749); assay type: functional
# T2 sequence (P9WMR3 whole entry): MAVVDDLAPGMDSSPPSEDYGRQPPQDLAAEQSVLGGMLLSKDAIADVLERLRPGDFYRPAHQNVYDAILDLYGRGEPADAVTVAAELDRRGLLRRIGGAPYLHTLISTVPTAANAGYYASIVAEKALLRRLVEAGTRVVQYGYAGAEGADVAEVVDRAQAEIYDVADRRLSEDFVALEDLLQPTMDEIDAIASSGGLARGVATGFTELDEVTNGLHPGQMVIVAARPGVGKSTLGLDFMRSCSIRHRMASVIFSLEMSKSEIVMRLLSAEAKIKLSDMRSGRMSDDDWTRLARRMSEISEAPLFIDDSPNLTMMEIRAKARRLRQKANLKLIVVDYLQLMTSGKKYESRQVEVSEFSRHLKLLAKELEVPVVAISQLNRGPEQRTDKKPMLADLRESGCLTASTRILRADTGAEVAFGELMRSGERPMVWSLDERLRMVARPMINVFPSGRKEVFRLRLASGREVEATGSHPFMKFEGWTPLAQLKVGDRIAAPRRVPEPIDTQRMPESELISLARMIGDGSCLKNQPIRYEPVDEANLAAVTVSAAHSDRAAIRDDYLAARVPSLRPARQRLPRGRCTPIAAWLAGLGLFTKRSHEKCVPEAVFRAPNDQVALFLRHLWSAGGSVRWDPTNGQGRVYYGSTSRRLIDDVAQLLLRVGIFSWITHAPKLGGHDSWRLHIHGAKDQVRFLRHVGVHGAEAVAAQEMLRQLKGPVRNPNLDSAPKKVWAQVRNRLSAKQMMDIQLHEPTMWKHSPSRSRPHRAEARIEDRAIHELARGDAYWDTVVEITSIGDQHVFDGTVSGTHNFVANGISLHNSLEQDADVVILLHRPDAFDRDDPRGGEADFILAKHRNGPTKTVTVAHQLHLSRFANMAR
# Coagulation factor XII = biological target: T3, Coagulation factor XII (Homo sapiens, UniProt P00748); assay type: functional;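 further: activated factor XIIa alpha cleaving a fluorogenic AMC peptide substrate; inhibitor potency from loss of enzyme activity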
# T3 sequence (P00748 whole entry): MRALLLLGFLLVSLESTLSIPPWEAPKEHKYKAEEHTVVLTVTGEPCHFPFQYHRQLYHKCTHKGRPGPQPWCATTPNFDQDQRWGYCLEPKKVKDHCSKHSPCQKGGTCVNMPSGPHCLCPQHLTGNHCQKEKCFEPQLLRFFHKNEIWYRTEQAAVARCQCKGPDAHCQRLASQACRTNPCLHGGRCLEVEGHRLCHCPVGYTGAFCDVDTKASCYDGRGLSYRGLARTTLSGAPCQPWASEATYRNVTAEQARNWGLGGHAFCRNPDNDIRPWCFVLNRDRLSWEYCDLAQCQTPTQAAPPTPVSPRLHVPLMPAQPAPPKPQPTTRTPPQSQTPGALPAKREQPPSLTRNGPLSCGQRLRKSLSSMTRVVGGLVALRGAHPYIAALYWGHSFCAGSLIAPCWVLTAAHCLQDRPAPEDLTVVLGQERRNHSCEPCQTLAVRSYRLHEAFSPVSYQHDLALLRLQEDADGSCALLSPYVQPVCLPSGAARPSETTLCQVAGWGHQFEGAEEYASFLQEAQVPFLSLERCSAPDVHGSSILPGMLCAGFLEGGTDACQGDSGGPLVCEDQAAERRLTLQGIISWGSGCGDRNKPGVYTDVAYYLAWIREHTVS
# [4] = HIV-1 AD8 envelope cell-cell fusion blockers – cherry-pick, dose response (AID 652062); assay type: functional, cell-based;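 further: luciferase signal from cell-cell fusion driven by HIV-1 clade B AD8 Env; potency is for inhibitors of fusion seen as a drop in luminescence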
# [5] = off-target signal loss in HeLa-CEM21 co-culture – HeLa F-luc CTL cells, cherry-picked, counter-screen for HIV-1 Env fusion inhibitor project, dose response (AID 652040); assay type: functional, cell-based;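 further: potency for signal decrease marking cytotoxic or nonspecific inhibition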
# [6] = biological target: T4, Voltage-gated N-type calcium channel alpha-1B subunit/Amyloid beta A4 precursor protein-binding family A member 1 (Homo sapiens, UniProt Q00975+Q02410); assay type: protein assay
# [7] = biological target: T4, Voltage-gated N-type calcium channel alpha-1B subunit/Amyloid beta A4 precursor protein-binding family A member 1; assay type: protein assay; remark: listed apart in the source
# H9c2 = test: cells; assay type: functional, cell-based; conditions: Rattus norvegicus, H9c2, Myocardium;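 further: confirmatory concentration-response retest of ultra-high-throughput screening hits for modulation of myocardial damage; cell death induced by hydrogen peroxide oxidative stress; compound pretreatment for 60 min then peroxide exposure for 2 h; potency is for protecting the cells against peroxide damage rather than for killing them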
# Leucine aminopeptidase = biological target: T5, Leucine aminopeptidase (Plasmodium falciparum 3D7, UniProt Q8IL11); test: P. falciparum M17LAP inhibitors, primary screen, biochemical, fluorogenic H-Leu-NHMec substrate, 1536-well (AID 1619); assay type: functional
# T5 sequence (Q8IL11 whole entry): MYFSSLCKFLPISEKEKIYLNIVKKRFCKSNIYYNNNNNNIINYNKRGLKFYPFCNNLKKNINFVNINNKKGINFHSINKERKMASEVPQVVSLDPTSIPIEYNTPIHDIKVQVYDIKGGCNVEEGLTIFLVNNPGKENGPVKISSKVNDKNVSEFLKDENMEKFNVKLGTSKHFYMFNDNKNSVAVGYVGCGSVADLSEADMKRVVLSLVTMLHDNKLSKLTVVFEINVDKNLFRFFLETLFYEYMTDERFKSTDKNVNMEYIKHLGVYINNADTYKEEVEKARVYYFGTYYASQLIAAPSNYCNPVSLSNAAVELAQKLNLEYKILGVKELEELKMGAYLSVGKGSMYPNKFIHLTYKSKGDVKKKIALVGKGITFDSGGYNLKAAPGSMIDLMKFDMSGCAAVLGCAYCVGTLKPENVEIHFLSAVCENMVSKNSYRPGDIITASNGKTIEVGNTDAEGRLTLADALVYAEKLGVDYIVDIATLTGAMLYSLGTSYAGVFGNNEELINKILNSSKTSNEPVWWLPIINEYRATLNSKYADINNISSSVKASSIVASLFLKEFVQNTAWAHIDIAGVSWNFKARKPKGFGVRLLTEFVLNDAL
# [8] = biological target: Eukaryotic translation initiation factor 4E (Mus musculus, UniProt P63073); test: blockers of eIF4G binding by eIF4E – biochemical, TR-FRET, dose response (AID 855); assay type: functional;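 further: potency for disrupting eIF4E binding to eIF4GI seen as loss of FRET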
# [9] = viability of HCT116 lacking mutant beta-catenin – cell-based, human colon tumor, dose response (AID 1045); assay type: functional;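 further: HCT116 colon tumor cells with beta catenin knocked out; cells exposed to compound for 60 hours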
# [10] = viability of PTEN-deleted HCT116 cells – cell-based, HCT116 PTEN knockout, dose response (AID 1047); assay type: functional;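 further: HCT116 colon tumor cells with PTEN knocked out; cells exposed to compound for 60 hours before readout; potency for loss of cell viability measured by luminescence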
# [11] = general mammalian cell viability loss – activator set, cherry-pick, cytotoxicity control for miR-122 modulator project, dose response (AID 720690); assay type: functional, cell-based;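 further: HEK293T human cells scored for general mammalian cytotoxicity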
# [12] = activation of miR-122 Renilla sensor silencing – cell-based, Huh7 psiCHECK-miR122, Renilla luciferase, cherry-picked, dose response (AID 651956); assay type: functional;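 further: huh7 hepatoma cells stably carrying a psiCHECK-2 miR-122 sensor plasmid; renilla luciferase signal reporting endogenous miR-122 activity after 48 h compound exposure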
# [13] = Luminescence Cell-Based Dose Response HTS to Identify Inhibitors of 5'UTR Stem-Loop Driven Prion Protein mRNA Translation in H4 Neuroglioblastoma Cells. [Related pubchem assays: 1827 (Project Summary), 1813 (Primary HTS)]; assay type: functional
# [14] = luciferase reporter signal suppression in cells – H4 neuroglioma cells, luminescence, dose response (AID 1990); assay type: functional, cell-based
# [15] = alpha-synuclein stem-loop luciferase translation blockers – H4 neuroglioma cells, luminescence, confirmation (AID 1988); assay type: functional, cell-based
# cells = assay type: functional
# [16] = HepG2 cell cytotoxicity, dose response, cytotoxicity control for non-replicating M. tuberculosis project (AID 489018); assay type: functional; conditions: Mycobacterium tuberculosis
# [17] = THP-1 cell cytotoxicity, dose response, cytotoxicity control for non-replicating M. tuberculosis project (AID 489025); assay type: functional
# Chain of Voltage-dependent T-type calcium channel subunit alpha-1H (O95180 whole entry): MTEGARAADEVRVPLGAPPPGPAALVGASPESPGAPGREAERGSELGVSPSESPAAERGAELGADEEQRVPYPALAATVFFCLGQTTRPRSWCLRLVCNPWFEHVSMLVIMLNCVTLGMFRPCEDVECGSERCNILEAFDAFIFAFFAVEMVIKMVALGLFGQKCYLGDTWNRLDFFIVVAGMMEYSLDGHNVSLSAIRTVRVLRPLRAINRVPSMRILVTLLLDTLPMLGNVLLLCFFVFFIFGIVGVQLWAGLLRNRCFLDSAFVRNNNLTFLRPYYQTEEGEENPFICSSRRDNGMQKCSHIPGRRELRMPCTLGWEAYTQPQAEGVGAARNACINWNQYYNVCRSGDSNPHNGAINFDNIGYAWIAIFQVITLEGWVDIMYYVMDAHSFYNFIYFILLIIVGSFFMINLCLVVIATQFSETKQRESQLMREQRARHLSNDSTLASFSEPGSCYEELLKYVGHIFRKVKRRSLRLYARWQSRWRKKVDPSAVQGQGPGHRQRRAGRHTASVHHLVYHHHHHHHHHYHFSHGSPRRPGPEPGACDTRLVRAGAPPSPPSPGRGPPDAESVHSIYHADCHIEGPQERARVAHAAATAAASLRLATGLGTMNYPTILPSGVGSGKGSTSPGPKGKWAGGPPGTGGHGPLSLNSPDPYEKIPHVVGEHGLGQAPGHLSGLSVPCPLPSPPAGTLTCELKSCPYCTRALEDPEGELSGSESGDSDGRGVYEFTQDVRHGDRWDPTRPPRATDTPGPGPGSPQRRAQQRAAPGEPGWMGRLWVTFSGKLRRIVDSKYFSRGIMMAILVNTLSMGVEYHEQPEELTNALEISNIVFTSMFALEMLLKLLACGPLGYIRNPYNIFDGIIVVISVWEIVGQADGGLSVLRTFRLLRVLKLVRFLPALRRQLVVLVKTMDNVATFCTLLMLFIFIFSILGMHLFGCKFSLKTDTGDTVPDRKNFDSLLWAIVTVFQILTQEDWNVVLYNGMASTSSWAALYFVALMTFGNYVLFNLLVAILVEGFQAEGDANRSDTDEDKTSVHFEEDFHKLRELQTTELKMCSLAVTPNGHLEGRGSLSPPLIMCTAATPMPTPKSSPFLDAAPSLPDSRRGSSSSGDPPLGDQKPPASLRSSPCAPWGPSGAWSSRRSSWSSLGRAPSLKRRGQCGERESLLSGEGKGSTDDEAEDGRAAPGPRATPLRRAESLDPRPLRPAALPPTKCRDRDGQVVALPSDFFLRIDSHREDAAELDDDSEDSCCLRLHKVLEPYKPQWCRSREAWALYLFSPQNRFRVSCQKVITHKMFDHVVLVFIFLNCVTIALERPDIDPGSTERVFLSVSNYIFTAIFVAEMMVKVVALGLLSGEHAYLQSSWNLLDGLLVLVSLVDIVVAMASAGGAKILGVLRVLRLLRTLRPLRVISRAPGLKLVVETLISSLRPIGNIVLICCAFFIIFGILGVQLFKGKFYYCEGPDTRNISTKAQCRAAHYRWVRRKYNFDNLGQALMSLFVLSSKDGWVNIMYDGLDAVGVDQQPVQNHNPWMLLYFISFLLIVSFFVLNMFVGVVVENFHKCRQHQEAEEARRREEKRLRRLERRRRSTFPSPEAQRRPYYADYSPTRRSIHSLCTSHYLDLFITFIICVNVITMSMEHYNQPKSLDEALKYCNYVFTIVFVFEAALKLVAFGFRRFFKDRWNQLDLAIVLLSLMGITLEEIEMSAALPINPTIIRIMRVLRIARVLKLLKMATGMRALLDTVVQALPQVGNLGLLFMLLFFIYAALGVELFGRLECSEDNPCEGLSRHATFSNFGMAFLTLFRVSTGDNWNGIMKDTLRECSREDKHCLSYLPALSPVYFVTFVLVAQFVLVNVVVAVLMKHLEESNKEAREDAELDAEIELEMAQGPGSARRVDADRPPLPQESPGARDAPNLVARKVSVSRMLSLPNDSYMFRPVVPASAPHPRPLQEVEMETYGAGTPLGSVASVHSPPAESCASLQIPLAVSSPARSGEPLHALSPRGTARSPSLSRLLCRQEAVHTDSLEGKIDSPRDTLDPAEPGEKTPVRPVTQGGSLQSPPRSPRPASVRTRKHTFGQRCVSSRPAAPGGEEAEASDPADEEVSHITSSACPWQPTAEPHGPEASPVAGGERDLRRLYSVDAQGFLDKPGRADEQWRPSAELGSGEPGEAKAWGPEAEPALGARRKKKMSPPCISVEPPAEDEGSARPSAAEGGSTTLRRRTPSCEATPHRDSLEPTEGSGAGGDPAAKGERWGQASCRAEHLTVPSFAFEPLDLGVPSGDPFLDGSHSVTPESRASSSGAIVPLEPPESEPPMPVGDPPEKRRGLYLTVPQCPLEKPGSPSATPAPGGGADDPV
# Chain of Eukaryotic translation initiation factor 4E (P63073 whole entry): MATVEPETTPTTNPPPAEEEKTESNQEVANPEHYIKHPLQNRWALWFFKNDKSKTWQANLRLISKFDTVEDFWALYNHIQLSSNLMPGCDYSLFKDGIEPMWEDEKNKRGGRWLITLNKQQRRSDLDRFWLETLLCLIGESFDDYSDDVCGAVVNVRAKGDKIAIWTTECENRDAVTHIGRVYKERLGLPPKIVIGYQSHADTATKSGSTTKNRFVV
smiles,measurement,setting,value
COc1ccc(NC(=O)c2ccco2)cc1NC(=O)c1cccc(OC(C)C)c1,EC50,[1],8.24 µM (active)
COc1ccc(-c2nn(-c3ccccc3)cc2C(=O)Nc2nccs2)cc1OC,CC50,[2],32 µM (active)
CCCOc1cccc(C(=O)N(Cc2ccco2)C2CCS(=O)(=O)C2)c1 (stereo not given),IC50,Prothrombin,> 50 µM (not active)
Cc1ccc(C)c(S(=O)(=O)NCCCN2CCOCC2)c1,IC50,Prothrombin,> 50 µM (not active)
CCCCCCCN(C(=O)CCl)c1ccccc1C,EC50,Protein RecA,0.893 µM (active)
same,AC50,[3],7.86 µM (active)
same,CC50,[2],2.82 µM (active)
CC(C)NC(=O)c1ccc(C(C)C)cc1,IC50,Prothrombin,> 50 µM (not active)
Fc1ccc(SCCc2ccccn2)cc1,IC50,Coagulation factor XII,> 50 µM (inactive)
CCCCCOC(=O)Nc1nnc(CCCCC)s1,IC50,Coagulation factor XII,> 50 µM (inactive)
Cn1c(SCc2nc(-c3ccc(Cl)cc3)no2)nnc1-c1cccs1,AC50,[4],9.06 µM (active)
same,AC50,[5],3.1 µM (active)
CCc1cccc(NC(=O)C[S+]([O-])Cc2nc(-c3ccc(C)cc3)oc2C)c1 (stereo not given),EC50,[1],3.17 µM (active)
O=C1NC(=O)N(Cc2ccccc2)C(=O)/C1=C/c1cnn(-c2ccccc2)c1,IC50,[6],> 50 µM (inactive)
same,IC50,[7],14.9 µM (active)
O=C(NCc1ccco1)c1scc2c1OCCO2,IC50,Coagulation factor XII,> 50 µM (inactive)
CCOC(=O)[C@H]1[C@H]2COc3ccc(Br)cc3[C@@H]2N2C(=O)c3cc(OC)c(OC)cc3NC(=O)[C@@]12C,IC50,H9c2,15.5 µM (active)
same,CC50,[2],> 40 µM (active)
COc1ccc(CC(CC(=O)O)C(=O)Nc2ccccc2)cc1 (stereo not given),IC50,Leucine aminopeptidase,47.2 µM (active)
Cc1cccc(NC(=S)NC2CCCC2)n1,IC50,[6],> 50 µM (inactive)
same,IC50,[7],7.9 µM (active)
O=C(NC1CCCCC1)N(Cc1ccccc1)Cc1ccco1,EC50,[1],3.68 µM (active)
Nc1ccc(S(=O)(=O)N2CCCc3ccccc32)cc1,IC50,[8],> 64 µM (inactive)
O=C1CC(SCCc2nc3ccccc3[nH]2)C(=O)N1c1ccc(Cl)cc1 (stereo not given),EC50,[1],613 µM (active)
O=C(NCCc1csc(-c2ccc(C(F)(F)F)cc2)n1)c1cccs1,EC50,[1],4.14 µM (active)
Cc1ccc(S(=O)(=O)Nc2nc3c(s2)C(=O)CC(C)(C)C3)cc1,IC50,Leucine aminopeptidase,94.4 µM (active)
Cc1ccc(C(=O)n2cnnc2N)cc1C,IC50,Prothrombin,1.87 µM (active)
CCOC(=O)c1c(NC(=S)NC(=O)c2ccc(Cn3cc(Cl)cn3)o2)sc2c1CCC(C)C2 (stereo not given),EC50,[9],6.18 µM (active)
same,EC50,[10],5.87 µM (active)
same,CC50,[2],12.2 µM (active)
C/C=C/c1ccc2c(c1)O[C@@H](CN(C)CC1CCCC1)[C@H](C)CN([C@@H](C)CO)S2(=O)=O,AC50,[11],22.4 µM (active)
same,AC50,[12],42.1 µM (active)
C[C@@H]1CN([C@@H](C)CO)C(=O)c2cccc(NC(=O)c3ccc(-c4nccs4)cc3)c2O[C@H]1CN(C)Cc1ccc2c(c1)OCO2,AC50,[11],25.6 µM (active)
CCCOc1ccc(CCC(=O)N/N=C/c2ccc([N+](=O)[O-])o2)cc1,EC50,[13],> 120 µM (not active)
same,EC50,[14],> 120 µM (not active)
same,EC50,[15],> 120 µM (not active)
same,IC50,cells,5.03 µM (active)
same,CC50,[16],19.3 µM (active)
same,CC50,[17],13.1 µM (active)
CC1(C)C2CC=C(/C=N/n3cnnc3)C1C2 (stereo not given),IC50,Coagulation factor XII,> 50 µM (inactive)
